Measured values as given in US8017791B2, “Tri-substituted 2-benzhydryl-5-benzylamino-tetrahydro-pyran-4-ol and 6-benzhydryl-4-benzylamino-tetrahydro-pyran-3-ol analogues, and novel, 3,6-disubstituted pyran derivatives” (Wayne State University, priority 2003, dated 2011).
“Also recorded” adds a separate entry of the source. Where two headings read alike, the source gives them in different places.

Legend:
DAT [1] = target: T1, DAT (Rattus norvegicus, UniProt P23977); assay: Inhibition of [3H]WIN 35,428 binding to DAT
T1 construct: rat striatum was the source for DAT, and cerebral cortex for SERT and NET; from tissue; P2 synaptosomal fraction for uptake
T1 sequence (P23977 whole entry): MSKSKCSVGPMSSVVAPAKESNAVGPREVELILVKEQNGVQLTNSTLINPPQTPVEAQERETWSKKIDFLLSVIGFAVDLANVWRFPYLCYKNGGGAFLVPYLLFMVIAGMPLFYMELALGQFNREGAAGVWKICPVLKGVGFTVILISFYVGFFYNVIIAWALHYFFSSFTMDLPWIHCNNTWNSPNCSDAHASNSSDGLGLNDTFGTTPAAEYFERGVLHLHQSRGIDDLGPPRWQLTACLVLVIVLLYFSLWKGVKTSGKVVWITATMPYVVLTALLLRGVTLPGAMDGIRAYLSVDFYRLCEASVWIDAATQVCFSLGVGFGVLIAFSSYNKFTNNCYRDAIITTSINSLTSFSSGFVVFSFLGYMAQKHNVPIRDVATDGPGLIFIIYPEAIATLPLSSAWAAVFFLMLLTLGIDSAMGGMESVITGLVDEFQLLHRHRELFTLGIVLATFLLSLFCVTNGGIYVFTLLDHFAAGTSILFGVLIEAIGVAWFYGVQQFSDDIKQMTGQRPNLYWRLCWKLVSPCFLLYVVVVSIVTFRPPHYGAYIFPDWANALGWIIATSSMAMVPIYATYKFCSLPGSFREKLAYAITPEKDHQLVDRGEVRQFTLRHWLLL
Method: (§1) Biology. […] Briefly, rat striatum was the source for DAT, and cerebral cortex for SERT and NET. […] Test compounds were dissolved in dimethyl sulfoxide (DMSO) and diluted out in 10% (v/v) DMSO. […] At least five triplicate concentrations of each test compound were studied, spaced evenly around the IC50 value. For DAT uptake assays, uptake of 50 nM [^3H]DA into rat striatal synaptosomes was measured exactly as described by us previously. Briefly, rat striatal P2 membrane fractions were incubated with test compounds for 8 min followed by the additional presence of [^3H]DA for 4 min at 25?. […] Construction of inhibition curves and dissolvement of test compounds were as described above.

DAT [2] = target: T1, DAT; assay: Inhibition of [3H]DA uptake by DAT into rat striatal synaptosomes; type: biochemical; conditions: for IC50: read-out: DAT uptake, IC50 [3H]DA
Method: as §1

SERT [3] = target: T2, SERT (Rattus norvegicus, UniProt P31652); assay: SERT uptake inhibition, [3H]5-HT; type: biochemical; conditions: Table 4; for IC50: rat brain, read-out: SERT uptake, IC50 [3H]5-HT; for blockade of both SERT and NET (SNRI profile), in words: in vitro data
T2 construct: rat striatum was the source for DAT, and cerebral cortex for SERT and NET; from tissue; host or cells: rat cerebral cortex
T2 sequence (P31652 whole entry): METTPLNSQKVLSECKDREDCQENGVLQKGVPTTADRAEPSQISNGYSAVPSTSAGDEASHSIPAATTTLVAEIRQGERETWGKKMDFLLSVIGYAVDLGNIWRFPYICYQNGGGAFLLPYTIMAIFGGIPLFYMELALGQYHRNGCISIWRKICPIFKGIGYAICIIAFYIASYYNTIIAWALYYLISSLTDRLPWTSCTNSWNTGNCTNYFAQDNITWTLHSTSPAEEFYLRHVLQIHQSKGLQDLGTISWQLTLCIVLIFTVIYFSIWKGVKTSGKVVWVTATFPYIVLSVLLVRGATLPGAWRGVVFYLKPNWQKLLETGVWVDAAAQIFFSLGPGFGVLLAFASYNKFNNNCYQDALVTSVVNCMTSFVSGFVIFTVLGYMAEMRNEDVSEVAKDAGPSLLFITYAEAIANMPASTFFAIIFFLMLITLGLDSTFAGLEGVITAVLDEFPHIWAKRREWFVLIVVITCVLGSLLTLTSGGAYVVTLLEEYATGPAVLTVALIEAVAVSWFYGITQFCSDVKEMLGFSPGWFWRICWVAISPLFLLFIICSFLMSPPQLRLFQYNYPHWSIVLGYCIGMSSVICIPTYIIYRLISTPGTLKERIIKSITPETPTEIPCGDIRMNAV

NET (Rattus norvegicus) = target: T3, NET (Rattus norvegicus); assay: NET uptake inhibition, [3H]NE; type: biochemical; conditions: Table 4; rat brain
T3 construct: from tissue
T3 sequence (Q63380 1-617): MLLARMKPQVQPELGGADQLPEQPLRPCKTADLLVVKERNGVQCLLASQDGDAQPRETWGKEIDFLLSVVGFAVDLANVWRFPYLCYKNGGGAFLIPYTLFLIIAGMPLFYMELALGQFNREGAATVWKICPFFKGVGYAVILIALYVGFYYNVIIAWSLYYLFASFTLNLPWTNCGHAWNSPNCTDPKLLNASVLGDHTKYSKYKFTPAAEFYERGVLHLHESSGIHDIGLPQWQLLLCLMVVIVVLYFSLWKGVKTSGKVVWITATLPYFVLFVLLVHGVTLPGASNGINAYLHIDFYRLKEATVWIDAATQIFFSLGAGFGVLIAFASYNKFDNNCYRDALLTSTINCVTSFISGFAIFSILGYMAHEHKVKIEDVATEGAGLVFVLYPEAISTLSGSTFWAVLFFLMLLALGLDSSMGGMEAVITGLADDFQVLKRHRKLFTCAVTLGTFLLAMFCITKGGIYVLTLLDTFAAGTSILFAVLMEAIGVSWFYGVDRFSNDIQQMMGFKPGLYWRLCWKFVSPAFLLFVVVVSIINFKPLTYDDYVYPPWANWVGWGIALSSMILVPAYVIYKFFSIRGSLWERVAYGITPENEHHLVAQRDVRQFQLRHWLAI

SERT [4] = target: T2, SERT; assay: Inhibition of [3H]citalopram binding to SERT; conditions: for SERT binding/DAT binding: Table 3, selectivity ratio of IC50 values
Method: as §1

NET [5] = target: NET (Rattus norvegicus, UniProt Q9WTR4); assay: Inhibition of [3H]nisoxetine binding to NET
Method: as §1

NET [6] = assay: Inhibition of [3H]nisoxetine binding to NET; set-up: species or system rat; conditions: Table 3; selectivity ratio of IC50 values
Method: as §1

[7] = Table 4, rat brain, read-out: DAT binding, IC50, [3H]Win 35,428
[8] = Table 2, average ± SEM, read-out: SERT binding, IC50 [3H]citalopram
[9] = Table 2, average ± SEM of three to eight experiments, read-out: DAT binding, IC50, [3H]Win 35,428
[10] = Table 2, average ± SEM, read-out: NET binding, IC50 [3H]nisoxetine
[11] = Table 1, rat striatum, read-out: Inhibition of [3H]Win 35,428 binding to DAT IC50
[12] = Table 1, read-out: Inhibition of [3H]citalopram binding to SERT, IC50
[13] = Table 1, read-out: Inhibition of [3H]nisoxetine binding to NET, IC50

| SMILES | IC50 (DAT [1]; [7]) [nM] | IC50 (DAT [2]; Table 4, rat brain) [nM] | IC50 (SERT [3]) [nM] | IC50 (SERT [4]; [8]) [nM] | IC50 (DAT [1]; [9]) [nM] | SERT binding/DAT binding (SERT [4]) | IC50 (NET [5]; [10]) [nM] | NET binding/DAT binding (NET [6]) | further results |
| --- | --- | --- | --- | --- | --- | --- | --- | --- | --- |
| COc1cc(CN[C@@H]2CO[C@H](C(c3ccccc3)c3ccccc3)C[C@H]2O)cc(OC)c1 [(−)-29f, (2S,4R,5R)-2-benzhydryl-5-(3,5-dimethoxy-benzylamino)-tetrahydropyran-4-ol] | 298 ± 29 | 135 ± 3 | 25.4 ± 2 | – | – | – | – | – | blockade of both SERT and NET (SNRI profile), in words (SERT [3]): potent blockers for both SERT and NET; blockade of both SERT and NET (SNRI profile), in words (SERT [3]; listed as (−)29f): dual transport blockers; IC50 (NET (Rattus norvegicus)): 108 ± 11 nM |
| Oc1ccc(CN[C@H]2CC[C@@H](C(c3ccccc3)c3ccccc3)OC2)cc1 (relative stereo) [Compound 16h, Cis-(6-benzhydryl-tetrahydropyran-3-yl)-(4-hydroxy-benzyl)-amine] | – | – | – | 398 ± 22 | – | – | – | – | IC50 (DAT [1]; read-out: IC50 at the DAT): 78.4 nM; potency at NET, in words (NET [5]): high potency for the NET |
| Fc1ccc(CCN[C@H]2CC[C@@H](C(c3ccccc3)c3ccccc3)OC2)cc1 (relative stereo) [Compound 16p, Cis-(6-benzhydryl-tetrahydropyran-3-yl)-[2-(4-fluoro-phenyl)-ethyl]-amine] | – | – | – | 3950 | 129 ± 58 | 30.6 | 5210 | 40.4 | – |
| O[C@@H]1C[C@@H](C(c2ccccc2)c2ccccc2)OC[C@H]1NCc1ccccc1 [(−)-29d, (2S,4R,5R)-2-benzhydryl-5-benzylamino-tetrahydro-pyran 4-ol] | – | 600 ± 79 | 862 ± 36 | – | – | – | – | – | – |
| Ic1ccc(CN[C@H]2CC[C@@H](C(c3ccccc3)c3ccccc3)OC2)cc1 (relative stereo) [Compound 16m, Cis-(6-benzhydryl-tetrahydropyran-3-yl)-(4-iodo-benzyl)-amine] | – | – | – | 2480 ± 145 | 319 ± 21 | 7.76 | 234 ± 17 | 0.73 | IC50 (DAT [2]; Table 2, average ± SEM): 500 ± 34 nM; [3H]DA uptake/DAT binding (DAT [2]; Table 3, ratio of IC50 values): 1.56 |
| c1ccc(C(c2ccccc2)[C@@H]2CC[C@H](NCc3ccc4[nH]ccc4c3)CO2)cc1 (relative stereo) [Compound 16n, Cis-(6-benzhydryl-tetrahydropyran-3-yl)-(1H-iodo-5-ylmethyl)-amine] | – | – | – | 325 ± 20 | – | 0.55 | 56 ± 6 | 0.09 | IC50 (DAT [1]; read-out: DAT binding, IC50, [3H]Win 35,428): 587 ± 66 nM; potency at NET, in words (NET [5]): high affinity; also recorded: strong selective potency at NET |
| O[C@H]1C[C@H](C(c2ccccc2)c2ccccc2)OC[C@@H]1NCc1ccccc1 [(+)-29d, (2R,4S,5S)-2-benzhydryl-5-benzylamino-tetrahydro-pyran-4-ol] | 596 ± 84 | 341 ± 43 | 6120 ± 730 | – | – | – | – | – | – |
| Fc1ccc(CN[C@H]2CCO[C@@H](C(c3ccccc3)c3ccccc3)C2)cc1 (relative stereo) [Compound 7a, cis-(2-benzhydryl-tetrahydropyran 4-yl)-(4-fluorobenzyl)-amine] | – | – | – | 3310 | 1300 | 2.5 | 5100 | 3.9 | activity at DAT, in words (DAT [1]): much weaker at DAT; IC50 (DAT [1]; [11]): 1300 nM; IC50 (SERT [4]; [12]): 3310 nM; IC50 (NET [5]; [13]): 5100 nM |
| O[C@@H]1C[C@@H](C(c2ccccc2)c2ccccc2)OC[C@H]1NCc1ccc2[nH]ccc2c1 [(−)-32b, (2S,4R,5R)-2-benzhydryl-5-[(1H-indol-5-ylmethyl)-amino]-tetrahydropyran-4-ol] | 705 ± 176 | 162 ± 11 | – | – | – | – | – | – | blockade of both SERT and NET (SNRI profile), in words (SERT [3]): potent blockers for both SERT and NET; blockade of both SERT and NET (SNRI profile), in words (SERT [3]; listed as (−)32b): dual transport blockers |
| Fc1ccc(CN[C@@H]2CCO[C@@H](C(c3ccccc3)c3ccccc3)C2)cc1 (relative stereo) [Compound 7b, trans-(2-benzhydryl-tetrahydropyran-4-yl)-(4-fluoro-benzyl)-amine] | – | – | – | 4780 | 1580 | 3 | 17500 | 11.1 | activity at DAT, in words (DAT [1]): much weaker at DAT; IC50 (DAT [1]; [11]): 1580 nM; IC50 (SERT [4]; [12]): 4780 nM; IC50 (NET [5]; [13]): 17500 nM |
